{"source": "patent US20140106421A1", "about": "“Methods Of Producing Carboxylic Acids And/Or Alcohols” (Industrial Technology Research Institute, priority 2012, published 2014)", "key": {"[1]": {"tested_on": "C. tyrobutyricum ATCC25755", "test": "Free-cell culture with organic solution on top of the culture medium (Example 2)", "assay_type": "cell-based", "settings": "free cells, 24 hours at 37° C.", "method": "The culture medium was then inoculated with 0.08 ml of bacterial stock comprising C. tyrobutyricum ATCC25755. The initial optical density (OD) measured at a wavelength of 600 nm was 0.2. After inoculation, 0.8 ml of an organic solution (as listed in the Table 4 below) was added to the top of the culture medium. The bacteria was then cultured in Tecan infinite 200 Pro Multimode Microplate Readers (Tecan Group Ltd., Switzerland) for 24 hours at 37° C., with shaking once every 30 minutes."}, "[2]": {"tested_on": "PVA-immobilized clostridium tyrobutyricum", "test": "2-liter tank fermentor extractive fermentation (Example 5)", "assay_type": "cell-based", "settings": "37° C., 40 hours", "excerpt": "A 2-liter tank fermentor 500 as illustrated in FIG. 5 was used in this Example. […] The medium was then purged with N2 to reach anaerobiosis. The pH of the basal medium was further adjusted to 6.0 with 2 N NaOH. Subsequently, the medium was inoculated with about 100 g of PVA-immobilized C. tyrobutyricum cell beads prepared as described above. An extractive fermentation-column reactor similar to the one shown in FIG. 5 was used in this example. The lower region of the reactor was filled with 700 ml of the basal medium containing glucose as the substrate and inoculated with about 70 ml of PVA-immobilized clostridium tyrobutyricum. In addition, the upper region of the reactor was filled with either 700 ml of 1 M TOPO in oleyl alcohol or 700 ml of oleyl alcohol without TOPO. The fermentation was conducted at 37° C. for 40 hours, and the pH of the fermentation medium was not controlled in this example."}, "[3]": {"test": "Extraction of butyric acid from CGM medium with TOA in oleyl alcohol (Example 1.1)", "assay_type": "physicochemical", "settings": "CGM medium with 5% butyric acid, pH 4, 37° C.", "method": "50 ml of CGM culture medium (basal medium, see the table provided immediately below) containing 5% of butyric acid (the pH of the CGM medium decreased to 4 after the addition of the butyric acid) was mixed with 5 ml of 0.7 M, 1 M, […] of trioctylamine (C24H51N, CAS No. 1116-76-3, abbreviation: TOA) in oleyl alcohol at 37° C.\nThe concentrations of butyric acid in the CGM culture medium (i.e., the aqueous phase) and in the trioctylamine solution (i.e., the organic phase) were measured every 12 hours by high performance liquid chromatography (HPLC).\nThe butyric acid distribution ratio (D) was calculated by dividing the concentration of butyric acid in the organic medium by the concentration of butyric acid in the aqueous medium: […]"}, "[4]": {"test": "Extraction of butyric acid from CGM medium with TOPO in oleyl alcohol (Example 1.2)", "assay_type": "physicochemical", "settings": "24 hours, 37° C.", "method": "The butyric acid distribution ratio (D) was calculated by dividing the concentration of butyric acid in the organic medium by the concentration of butyric acid in the aqueous medium:\n[…] The pH of the culture medium was further adjusted to a value ranging from 4 to 6 with 4 N NaOH and 4 N HCl.\nAfter 24 hours, the concentrations of butyric acid in the CGM culture medium (the aqueous phase) and in the TOPO solution (the organic phase) were measured by HPLC."}, "[5]": {"tested_on": "PVA-immobilized clostridium tyrobutyricum", "test": "Extractive fermentation-column reactor, 1 M TOPO or TBP in oleyl alcohol (Example 4C)", "assay_type": "cell-based", "settings": "1 M extractant in oleyl alcohol as organic phase; 37° C., 100 hours", "method": "In addition, the upper region of the reactor was filled with either 40 ml of 1 M TOPO in oleyl alcohol or 40 ml 1 M TBP in oleyl alcohol. The fermentation was conducted at 37° C. for 100 hours."}}}
{"smiles": "CCCCCCCC/C=C\\CCCCCCCCO", "note": "[Oleyl alcohol only, oleyl alcohol]", "values": [{"measurement": "Glucose consumption rate %", "setting": "[1]", "result": 80.7, "unit": "%"}, {"measurement": "Bacterial Growth rate (OD/h)", "setting": "[1]; OD at 600 nm", "result": 0.08, "unit": "OD/h"}, {"measurement": "% of glucose consumed", "setting": "[2]", "result": 100, "unit": "%"}, {"measurement": "Distribution ratio of butryic acid", "setting": "[2]", "result": 0.86}]}
{"smiles": "CCCCCCCCN(CCCCCCCC)CCCCCCCC", "note": "[TOA, trioctylamine]", "values": [{"measurement": "Butyric acid distribution ratio (D)", "setting": "[3]; 0.7M TOA in oleyl alcohol", "result": 7.38}, {"measurement": "Butyric acid distribution ratio (D)", "setting": "[3]; 1M TOA in oleyl alcohol", "result": 10.21}, {"measurement": "Butyric acid distribution ratio (D)", "setting": "[3]; 1.4M TOA in oleyl alcohol", "result": 13.82}]}
{"smiles": "CCCCCCCCP(=O)(CCCCCCCC)CCCCCCCC", "note": "[TOPO, trioctylphosphine oxide]", "values": [{"measurement": "butyric acid distribution ratio", "setting": "[4]; TOPO 0.1 M in oleyl alcohol, butyric acid 1%, pH 4", "result": 1.45}, {"measurement": "butyric acid distribution ratio", "setting": "[4]; TOPO 0.1 M in oleyl alcohol, butyric acid 1%, pH 5", "result": 0.31}, {"measurement": "butyric acid distribution ratio", "setting": "[4]; TOPO 0.1 M in oleyl alcohol, butyric acid 1%, pH 6", "result": 0.00}, {"measurement": "butyric acid distribution ratio", "setting": "[4]; TOPO 0.1 M in oleyl alcohol, butyric acid 2%, pH 4", "result": 2.12}, {"measurement": "butyric acid distribution ratio", "setting": "[4]; TOPO 0.1 M in oleyl alcohol, butyric acid 2%, pH 5", "result": 0.37}, {"measurement": "butyric acid distribution ratio", "setting": "[4]; TOPO 0.1 M in oleyl alcohol, butyric acid 2%, pH 6", "result": 0.05}, {"measurement": "butyric acid distribution ratio", "setting": "[4]; TOPO 0.1 M in oleyl alcohol, butyric acid 3%, pH 4", "result": 2.17}, {"measurement": "butyric acid distribution ratio", "setting": "[4]; TOPO 0.1 M in oleyl alcohol, butyric acid 3%, pH 5", "result": 0.26}, {"measurement": "butyric acid distribution ratio", "setting": "[4]; TOPO 0.1 M in oleyl alcohol, butyric acid 3%, pH 6", "result": 0.00}, {"measurement": "butyric acid distribution ratio", "setting": "[4]; TOPO 0.5 M in oleyl alcohol, butyric acid 1%, pH 4", "result": 1.91}, {"measurement": "butyric acid distribution ratio", "setting": "[4]; TOPO 0.5 M in oleyl alcohol, butyric acid 1%, pH 5", "result": 0.36}, {"measurement": "butyric acid distribution ratio", "setting": "[4]; TOPO 0.5 M in oleyl alcohol, butyric acid 1%, pH 6", "result": 0.03}, {"measurement": "butyric acid distribution ratio", "setting": "[4]; TOPO 0.5 M in oleyl alcohol, butyric acid 2%, pH 4", "result": 2.82}, {"measurement": "butyric acid distribution ratio", "setting": "[4]; TOPO 0.5 M in oleyl alcohol, butyric acid 2%, pH 5", "result": 0.37}, {"measurement": "butyric acid distribution ratio", "setting": "[4]; TOPO 0.5 M in oleyl alcohol, butyric acid 2%, pH 6", "result": 0.06}, {"measurement": "butyric acid distribution ratio", "setting": "[4]; TOPO 0.5 M in oleyl alcohol, butyric acid 3%, pH 4", "result": 2.90}, {"measurement": "butyric acid distribution ratio", "setting": "[4]; TOPO 0.5 M in oleyl alcohol, butyric acid 3%, pH 5", "result": 0.35}, {"measurement": "butyric acid distribution ratio", "setting": "[4]; TOPO 0.5 M in oleyl alcohol, butyric acid 3%, pH 6", "result": 0.04}, {"measurement": "butyric acid distribution ratio", "setting": "[4]; TOPO 1 M in oleyl alcohol, butyric acid 1%, pH 4", "result": 2.67}, {"measurement": "butyric acid distribution ratio", "setting": "[4]; TOPO 1 M in oleyl alcohol, butyric acid 1%, pH 5", "result": 0.42}, {"measurement": "butyric acid distribution ratio", "setting": "[4]; TOPO 1 M in oleyl alcohol, butyric acid 1%, pH 6", "result": 0.06}, {"measurement": "butyric acid distribution ratio", "setting": "[4]; TOPO 1 M in oleyl alcohol, butyric acid 2%, pH 4", "result": 3.88}, {"measurement": "butyric acid distribution ratio", "setting": "[4]; TOPO 1 M in oleyl alcohol, butyric acid 2%, pH 5", "result": 0.43}, {"measurement": "butyric acid distribution ratio", "setting": "[4]; TOPO 1 M in oleyl alcohol, butyric acid 2%, pH 6", "result": 0.04}, {"measurement": "butyric acid distribution ratio", "setting": "[4]; TOPO 1 M in oleyl alcohol, butyric acid 3%, pH 4", "result": 4.20}, {"measurement": "butyric acid distribution ratio", "setting": "[4]; TOPO 1 M in oleyl alcohol, butyric acid 3%, pH 5", "result": 0.35}, {"measurement": "butyric acid distribution ratio", "setting": "[4]; TOPO 1 M in oleyl alcohol, butyric acid 3%, pH 6", "result": 0.04}, {"measurement": "Cells growth (Δ OD600)", "setting": "[5]", "result": 6.0}]}
